Assays:
[1] = test system: neutrophils co-cultured with A-beta activated microglia; experiment: neutrophil recruitment toward soluble A-beta activated microglia (co-culture in microfluidic device); type: cell-based, human; conditions: for recruiting of neutrophils in the recapitulated AD environment: microglia-derived chemokines by A-beta stimulation; for higher neutrophil migration in central chamber: soluble A-beta 2.2 uM, 6 hours
Text: Microglial cells are resident brain immune cells and stimulated by soluble A-beta42, which is a signature of human AD neurotoxic peptide. Based on our previous observation of neutrophil accumulation on A-beta plaques in in vivo, we hypothesize that A-beta activated microglial cells has a critical role in recruiting neutrophil. Stimulated microglial cells can release various types of chemokines and/or cytokines to increase inflammatory behavior or to clear A-beta in inflamed region. Furthermore, those secreted chemokines and/or cytokines can recruit other cell types including peripheral immune cells (FIG. 9A). To modulate this whole process, we established an in vitro AD brain-blood model (ADBBM) using microglia and neutrophil to mimic the brain microenvironment. To accommodate the different cells separately in a single microfluidic platform, we employed mechanically separated two chambers, which are connected through neutrophil specific migration channels (10×5×500 μm in width, height, and length) forming gradients of chemokines and/or cytokines (FIG. 9B).
Compared to a parallel configuration having equal surface areas for cell loading and cell collection, the asymmetric configuration of the current microfluidic device 10 has a small central cell collecting compartment (central chamber 30), which is smaller than a large annular cell loading compartment (annular chamber 50) by a factor of 3, 4, 5, 6, 7, 8, 9, 10 or greater. […] This enhances the gradient formation and detection of recruitment. The long and thin migration channels 60 can block spontaneous entrance of inactivated neutrophil through mechanical constraints. Using this platform, we could culture microglial cells for extended periods to accumulate enough soluble factors and could observe neutrophil signature movement at single cell resolution, in real-time. Red membrane dye stained microglial cells plated first in central chamber 30 and incubated for 3 days with soluble A-beta to modulate chemokine/cytokine enriched AD microenvironment. Freshly isolated neutrophil labeled with green membrane dye plated on annular chamber 50 and incubated under microscope to observe their movement and accumulation in central chamber 30. Precise numbers of neutrophils are reproducibly loaded and uniformly distributed in annular chamber 50 and this design allows us to evaluate the response of neutrophil to various types of chemokines and/or cytokines. We tested 200 independent conditions at the same time, by using real time imaging of process in an array of twenty-five formatted on a single well plate 140 or an array of one-hundred nineteen formatted single well plate 140 (FIG. 7 and FIG. 8).
To validate the dependency of neutrophil migration toward soluble A-beta activated microglia, microglial cells plated on central chamber 30 with various cell numbers (5,000, 10,000, 20,000 cells). Microglial cells are pre-labeled with membrane dye according to manufacturer's protocol to observe their morphology change. After 24 hour incubation of microglia alone, prepared soluble A-beta (2.2 uM) with reduced 1% FBS Prigrowlll media were changed to incubate further for 48 hours. After 48 hours, freshly isolated neutrophil labeled with green membrane dye plated on annular chamber 50 and incubated on microscopic real time imaging chamber. Neutrophil (green) migration could be observed toward soluble A-beta activated microglia (red) cultured central chamber 30 after 6 hours (FIG. 11A). 2.4-, 1.2-times higher neutrophil migration could be observed in central chamber 30 in response to 10,000 and 20,000 cultured microglia in central chamber 30 by showing the dependency of neutrophil recruitment in cell numbers. […] By utilizing high-resolution and spatiotemporal controlled microscopic imaging method, we also can quantify the persistent movement of microglial cells in various stimulations. […]

U87 glioma line = experiment: glioma migration/invasiveness in microfluidic device, alone or in co-culture with microglia; type: cell-based; conditions: glioma cells cultured alone
Text: Here, we reconstituted a microenvironment of boosted brain tumor invasion by inducing glioma migration by using EGF, a chemoattractant for glioma, and promoting the migration via the incorporation with microglia. We plated both glioma and microglia on the outer chamber and EGF in the central chamber, which are connected through migration channels (50×10×500 μm in width, height, and length) forming gradients of chemokines for glioma. We found PAI-1 is abundantly expressed on most glioma lines. Next, we culture the U87 glioma line, which has produced PAI-1, to investigate the hypothesis that glioma-secreted PAI-1 interacts with microglia to affect glioma migration. In co-culture with microglia in a microfluidic device, the invasiveness of PAI-1 expressing U87 cell lines was increased. […] This study has uncovered a mechanism by which glioma cells exploit microglia for increased invasiveness. Specifically, glioma-derived PAI-1 acts upon microglia, which then produces IL-6 to stimulate gliomas. The PAI-1/IL-6 loop is a potential therapeutic target for the currently incurable malignant gliomas.

human neutrophils = experiment: microfluidic chemotactic model for neutrophil migration (platform validation with fMLP); type: cell-based; conditions: for neutrophils migrated back from chemoattractant / neutrophils migrated towards chemoattractant: persistence at 1 hour
Procedure: FIG. 10F. Neutrophil recruitment was quantified by comparing the fraction of cells inside the central chamber (CC) to the total number of cells in the corresponding angular chamber device (AC). The R.I. is calculated as R.I.=(CCDay i−CCDay 0)/ACDay i, where Day i is the number of cells in the central chamber and ADDay i is the number of cells in angular chamber. The recruitment index, R.I., is obtained by normalizing with the subtraction at ‘CCDay 0’ cell numbers.
We validated the assay by measuring the migration and accumulation of neutrophils toward a panel of known chemoattractant. To compare the effect of fMLP in various concentrations on neutrophil recruitment, we defined a neutrophil recruitment index, R.I. (FIG. 10B, FIG. 10F), representing the fraction of neutrophil recruited to the central chamber after loading fMLP in the central chamber. We compared the R.I. values under various soluble factors, (fMLP, A-beta, and media) (FIG. 10B) and could observe predominant neutrophil (green) recruitment with N-formyl-methionine-leucine-phenylalanine (fMLP) (10 nM) in central chamber 30 after 6 hours (FIG. 10A). A negligible number of cells entered central chamber in the absence of a chemoattractant by proving that the mechanical barrier 40 can exclude the spontaneous entrance of neutrophil. […] Neutrophils move through migration channels 60 at 18±5 μm/min and could reach central chamber in less than 30 min (FIG. 10G). We compared the migratory response of human neutrophils with various stimulators. […] Concentration-dependent changes in migration patterns in response to fMLP was primarily affect the migrating faction while there was no significant effect on persistent directionality.
(§1) Immortalized microglial cells (SV40-microglia) were purchased from Abm company (ABM Inc., Montreal, Canada). The cells were plated onto T25 cell culture flasks (BD Biosciences, San Jose, Calif., USA) and maintained in Prigrow III Medium (ABM Inc) supplemented with 50 mL FBS (Life Technologies) and 5 mL Pen/Strep (Invitrogen) in a CO2 cell culture incubator. Cell culture media were changed every 3 days until cells were confluent. For neutrophil isolation, human peripheral blood samples from healthy volunteers, aged 18 years and older, were purchased from InvivoGen. Peripheral blood was drawn in 10-ml tube containing a final concentration of 5 mM EDTA (Vacutainer; Becton Dickinson). Nucleated cells were isolated using a HetaSep gradient, followed by the EasySep Human Neutrophil Enrichment Kit (STEMCELL Technologies, Vancouver, Canada) according to the manufacturer's protocol.
After microglia loading, cells were recorded using time-lapse imaging using a fully automated Nikon TiE microscope with a heated incubator to 37° C. and 5% CO2 (10× magnification; Micro Device Instruments, Avon, Mass., USA). To achieve accurate cell tracking, the maximum time resolution of acquisition was 0.2 frames per second.
FIG. 10. Design and validation of a microfluidic chemotactic model for neutrophil migration. (10A) Neutrophils (green) instantly migrated along microchannels designed for neutrophils with a gradient of fMLP (10 nM) and accumulated in a central chamber, the source of fMLP. (10C) Time-lapse images show a simultaneous bi-directional migration of neurophils under the fMLP gradient on a single cellular level. The red arrows indicate persistent forward migration of neutrophils along the gradient of the chemoattractant and green arrows indicate the backward migration against the gradient. […] Combined data from n=5 independent experiments. Scale bars: (10A) 500 μm, (10C) 50 μm. Data represented as mean±SEM.

microglia = experiment: A-beta stimulation of microglia and analysis of cytokine release / activation markers; type: cell-based, human
Text: To characterize the phenotype changes in microglia induced by soluble A-beta, individual microglial cells were monitored for three days using time-lapse imaging microscopy. […] Morphological changes could be observed at 48 hrs following cell seeding (FIG. 9C bottom, +A-beta). As determined by image analysis, microglial cells became large and switched into more amoeboid type as the length and area of microglial somata (cell bodies) increased in all direction (FIG. 9C). And filopodia, which is observed in resting mode microglia, could not be observed in A-beta stimulated microglia. Furthermore, exposure of microglia to soluble A-beta induced up-regulation of microglial activation markers such as CD11b (FIGS. 9D and 9E) and CD68 (FIG. 9F). […] Membrane stained microglial cells (red) immunostained with anti-CD68 to observe activation of microglial cells with A-beta.
As microglia are the predominant resident immune cells of the brain, we next determined the effects of the soluble A-beta AD microenvironment on the inflammatory activity of microglia. Exposure to soluble A-beta was associated with significant increases in chemokine release (FIG. 9B).
as §1
For immunofluorescent stain, we rinsed the cells in medium twice with DPBS. To fix, cells were incubated in fresh 4% paraformaldehyde aqueous solution (157-4, ElectronMicroscopy Sciences) for more than 15 minutes at RT followed by rinsing twice with DPBS. To permeabilize, cells were incubated in 0.1% Triton X-100 in PBST (phosphate buffered saline with 0.1% tween®20) for 15 minutes at RT. To block, cells were incubated in 3% human serum albumin for overnight in PBST at 4° C. After incubating with the primary antibody solutions for 24 hour at 4° C., the cells were washed five times. The following antibody (and dilutions) were used: anti-cd11b (1:100, Life Technologies).
Microfluidic devices 10 were cultured for 72 hours, followed by incubation in A-beta containing medium with fetal bovine serum reduced from 10% to 1%. Microglia culture on central chamber 30 were stimulated with A-beta (Sigma Aldrich) at 2.2 uM with […] serum for 72 hrs. The cytokine release profile was assayed with the Human Cytokine 37-membrane kit array (R&D systems) and the resulting cytokine release profiles were quantified with ImageJ analysis.
FIG. 9. Activation of microglial inflammation with A-beta: chemokine release, morphogenesis, and marker expression. […] Both the membrane area (9D) and the amounts of expressed CD11b (9E) increase in the activated microglia with A-beta. ndevice=3, ncell=150. Scale bars: 30 μm. All parameters are presented as mean±SEM.

human primary microglial = experiment: microfluidic chemotaxis platform for microglial motility under soluble A-beta gradient; type: cell-based; conditions: soluble monomeric and oligomeric A-beta, picomolar to nanomolar concentrations
Text: Activated microglia initially take on various morphologies: rounded, ramified shapes, rods to amoeboid forms followed by motile activation, which complicates the visual tracking of individual cells. Previous in vitro attempts to study rat microglial migration in the presence of short-lived damaged axons could not establish long-lasting gradients and could not conclusively differentiate slow accumulation of microglia from heterogeneous activation and random navigation. We developed a novel, microfluidic chemotaxis platform to study the motility of those microglia selectively responding to stimuli in a regulated manner. To understand the specific roles of A-beta in microglial accumulation in the context of AD, we generated a week-long lasting soluble A-beta gradient, patterned insoluble surface-bound A-beta to mimic A-beta signature in AD brains, and isolated human primary microglial responding to A-beta in our platforms. We tested 200 independent conditions in a single batch, while using real time imaging of process in an array of twenty-five formatted single well plate. […] We also observed discernable co-localization of microglia to the sites of insoluble A-beta, representing A-beta plaques.

[2] = microglia exposed to soluble A-beta compared to microglia without A-beta

CCL2: microglia-derived chemokine released on A-beta stimulation
recruiting of neutrophils in the recapitulated AD environment [1]: effective for recruiting neutrophils

IL6: interleukin (IL)-6; microglia-derived cytokine, also used as recombinant protein
recruiting of neutrophils in the recapitulated AD environment [1]: effective for recruiting neutrophils | invasiveness of glioma cells (U87 glioma line): enhanced the invasiveness

IL8: microglia-derived chemokine released on A-beta stimulation
recruiting of neutrophils in the recapitulated AD environment [1]: effective for recruiting neutrophils

N-formyl-methionine-leucine-phenylalanine [fMLP]
neutrophils migrated back from chemoattractant (human neutrophils; 1 nM fMLP): 17.8±2.8% | neutrophils migrated towards chemoattractant (human neutrophils; 1 nM fMLP): 82.2±3.4% | magnitude of cell recruitment (recruitment index), 10 nM compared to 1 nM (human neutrophils; 10 nM fMLP compared to 1 nM fMLP, central chamber, 6 hours): 1.6 times | neutrophils migrated back from chemoattractant (human neutrophils; 10 nM fMLP): 11.5±1.7% | neutrophils migrated towards chemoattractant (human neutrophils; 10 nM fMLP): 88.5±3.8% | time to plateau of neutrophil response (human neutrophils; fMLP in central chamber): ≤ 6 h | decrease in the total fraction of migrating cells (human neutrophils; increasing fMLP from 10 nM to 1 μM): 63% | speed of neutrophils moving through migration channels (human neutrophils; migrating towards fMLP): 18±5 μm/min | time to reach central chamber (human neutrophils; migrating towards fMLP): less than 30 min

amyloid-beta [A-beta]
microglial activation markers CD11b and CD68 (microglia; exposure of microglia to soluble A-beta, immunostaining): up-regulation | secretion of anti-inflammatory markers (IL-1RA, IL-4, IL-10, TGF-β) (microglia; microglia exposed to soluble A-beta): very low or no detectable | CCL2 concentration increase (microglia; [2]): 1.4 fold | IL-6 concentration increase (microglia; [2]): 1.9 fold | IL-8 concentration increase (microglia; [2]): 2.3 fold | chemokine release of CCL3/4, CCL5 (microglia; [2]): new chemokine release | higher neutrophil migration in central chamber ([1]; 10,000 microglia in central chamber): 2.4 times | higher neutrophil migration in central chamber ([1]; 20,000 microglia in central chamber): 1.2 times | neutrophil migration ([1]; A-beta alone, no microglia): Negligible neutrophil migration | persistence of neutrophil migration ([1]; co-culture with soluble A-beta activated microglial cells): about 92% | microglial chemoattraction (human primary microglial): acting as a microglial chemoattractant

B1: CCL5: microglia-derived chemokine released on A-beta stimulation (protein, UniProt P13501 24-91, looked up)
C-C motif chemokine 5: SPYSSDTTPCCFAYIARPLPRAHIKEYFYTSGKCSNPAVVFVTRKNRQVCANPEKKWVREYINSLEMS
recruiting of neutrophils in the recapitulated AD environment [1]: effective for recruiting neutrophils

Reference: US20180356397A1, “MIMICRY OF NEUROINFLAMMATORY MICROENVIRONMENTS AND METHODS OF USE AND MANUFACTURING THEREOF” (priority 2017, published 2018)
